These results are taken from patent US20230271938A1, “BENZIMIDAZOLES FOR USE IN THE TREATMENT OF CANCER AND INFLAMMATORY DISEASES” (Capella Therapeutics, Inc., priority 2015, published 2023).

Bounds are passed on as bounds.

Holding throughout (type): cell-based
Assay [1] deals with HCC827 human NSCLC adenocarcinoma cells (mutant ERBB1, deletion of E746-A759 in exon 19). As to the kind of experiment: Cell proliferation assay, HCC827. Conditions: for Ratio (Wild-type ERBB1/Mutant ERBB1) A431/HCC827: GI50 ratio A431/HCC827; for Ratio (Wild-type ERBB1/Mutant ERBB1) HEKn/HCC827: GI50 ratio HEKn/HCC827; for GI50: Homo sapiens, HCC827 cells, 72 hrs. How it is done: (§1) The biological activity of a test compound was determined using cell proliferation assays. The activity against wild-type ERBB 1 was determined using A431 human epidermoid carcinoma cells (ATCC) and human epidermal keratinocytes, neonatal, or HEKn cells (ATCC).
(§2) A431 cells were grown in DMEM (Invitrogen) supplemented with 10% FBS (Lonza), 1% penicillin-streptomycin, and 2 mM glutamine (Invitrogen). HEKn cells were grown in EPILIFE® (Invitrogen) supplemented with HKGS (Invitrogen). HCC827 and H1975 were cultured in RPMI1640 supplemented with 10% FBS (Lonza), 1% penicillin-streptomycin, and 2 mM glutamine (Invitrogen). Cells were maintained and propagated at 37° C. and 5% CO2 in a humidified cell culture incubator. Aliquots of cells from early passages were preserved for liquid nitrogen storage. Frozen vials of cells were thawed at 37° C. water bath. Cells were spun to remove freezing medium. The newly revived frozen cells were adapted in culture for 10 days before used for compound testing. Cells used in the assay were less than 20 subculture passages or 3 months in culture.
(§3) The test compounds were dissolved in dimethylsulfoxide (DMSO) and stored at -20° C. before testing. […] The cells were placed in a culture incubator overnight. Next day, test compounds in DMSO were added to the cells and placed back in the culture incubator for 72 hrs. In the meantime, the cell numbers at time zero of the compound treatment (T0) was measured by ENERCOUNT® (Codex BioSolutions). At the end of the compound treatment, the cell numbers were again measured by EnerCount as T72 values. The untreated controls (Ctrl) were cell numbers recorded from the 0.1% DMSO treatment. The percent growth inhibition by the test compound was calculated by the formula: (1- (T72-T0)/(Ctrl-T0)) x 100.
(§4) The results are summarized in Tables 1 and 2, wherein A represents a value no greater than 500 nM, B represents a value greater than 500 nM but no greater than 1 µM, C represents a value greater than 1 µM but no greater than 5 µM, and D represents a value greater than 5 µM; and wherein A′ represents a ratio of greater than 10, B′ represents a ratio of no greater than 10 but no less than 5, C′ represents a ratio of no greater than 5 but no less than 2, and D′ represents a ratio of no greater than 2.

The subject of assay [2] is H1975 human NSCLC adenocarcinoma cells (drug-resistant mutant ERBB1, T790M in-cis with L858R). As to the kind of experiment: Cell proliferation assay, H1975. The note with it: for Ratio (Wild-type ERBB1/Mutant ERBB1) A431/H1975: GI50 ratio A431/H1975; for Ratio (Wild-type ERBB1/Mutant ERBB1) HEKn/H1975: GI50 ratio HEKn/H1975; for GI50: Homo sapiens, NCI-H1975, H1975 cells, 72 hrs. The protocol: as §1, §2, §3, §4

Assay [3] concerns human epidermal keratinocytes, neonatal, or HEKn cells (wild-type ERBB1). Nature of the assay: Cell proliferation assay, HEKn. The note with it: Keratinocyte, 72 hrs. The protocol:
as §1, §2, §3, §4

For assay [4], the system named is A431 human epidermoid carcinoma cells (wild-type ERBB1). Nature of the assay: Cell proliferation assay, A431. Conditions: A-431, 72 hrs. How it is done: as §1, §2, §3, §4
[5] abbreviates: numeric values, reference compounds.

What is called GI50 is the concentration that inhibits growth by half. A low value points to more potent growth inhibition. Regarding `C=CC(=O)N1CCCC[C@@H](n2c(NC(=O)c3ccnc(C)c3)nc3cc(OC(F)(F)F)cc(Cl)c32)C1` [Compound A4, (R)-N-(1-(1-Acryloylazepan-3-yl)-7-chloro-5-(trifluoromethoxy)-1H-benzo[d]imidazol-2-yl)-2-methylisonicotinamide], in assay [1], the “Ratio (Wild-type ERBB1/Mutant ERBB1) A431/HCC827” value is reported as “A′ (A′ represents a ratio of greater than 10)”, the “Ratio (Wild-type ERBB1/Mutant ERBB1) HEKn/HCC827” value is reported as “A′ (A′ represents a ratio of greater than 10)” and the GI50 is less than 0.5 µM. Also, in assay [2], the “Ratio (Wild-type ERBB1/Mutant ERBB1) A431/H1975” value is recorded as “C′ (C′ represents a ratio of no greater than 5 but no less than 2)”, the “Ratio (Wild-type ERBB1/Mutant ERBB1) HEKn/H1975” value is given as “C′ (C′ represents a ratio of no greater than 5 but no less than 2)” and the GI50 is less than 0.5 µM. Further, the 50% growth inhibitory concentration (GI50) in assay [3] was in the range of 1 to 5 µM. Moreover, the GI50 in assay [4] fell in the range of 1 to 5 µM.

Consider `C=CC(=O)N1CCCC[C@@H](n2c(NC(=O)c3ccnc(C(F)(F)F)c3)nc3ccc4c(c32)OCCO4)C1` [Compound B1-A, (R)-N-(1-(1-acryloylazepan-3-yl)-7,8-dihydro-1H-[1,4]dioxino[2′,3′:3,4]benzo[1,2-d]imidazol-2-yl)-2-(trifluoromethyl)isonicotinamide], for which the 50% growth inhibitory concentration (GI50) in assay [1] was less than 0.5 µM; in assay [2], less than 0.5 µM; in assay [3] it was more than 5 µM; in assay [4], 1 to 5 µM.

On to `C=CC(=O)N1CCC(Oc2cccc3nc(NC(=O)c4ccnc(C)c4)n([C@@H]4CCCCN(C(=O)C=C)C4)c23)CC1` [Compound A3, (R)-N-(1-(1-acryloylazepan-3-yl)-7-((1-acryloylpiperidin-4-yl)oxy)-1H-benzo[d]imidazol-2-yl)-2-methylisonicotinamide], for which, in assay [1], the “Ratio (Wild-type ERBB1/Mutant ERBB1) A431/HCC827” value is “A′ (A′ represents a ratio of greater than 10)”, the “Ratio (Wild-type ERBB1/Mutant ERBB1) HEKn/HCC827” value is “A′ (A′ represents a ratio of greater than 10)” and the 50% growth inhibitory concentration (GI50) is less than 0.5 µM. Also, in assay [2], the “Ratio (Wild-type ERBB1/Mutant ERBB1) A431/H1975” value was “B′ (B′ represents a ratio of no greater than 10 but no less than 5)”, the “Ratio (Wild-type ERBB1/Mutant ERBB1) HEKn/H1975” value was “A′ (A′ represents a ratio of greater than 10)” and the GI50 is less than 0.5 µM. For the same compound, in assay [3], the GI50 was in the range of 1 to 5 µM. Moreover, in assay [4], the GI50 is more than 5 µM.

`C=CC(=O)N1CCCC[C@@H](n2c(NC(=O)c3ccnc(C)c3)nc3ccc4c(c32)OCCO4)C1` [Compound C1-A, (R)-N-(1-(1-acryloylazepan-3-yl)-7,8-dihydro-1H-[1,4]dioxino[2′,3′:3,4]benzo[1,2-d]imidazol-2-yl)-2-methylisonicotinamide]: the GI50 was less than 0.5 µM in assay [1], less than 0.5 µM in assay [2], 1 to 5 µM in assay [3] and 1 to 5 µM in assay [4].

Take `C=CC(=O)N1CCCC[C@@H](n2c(NC(=O)c3ccnc(OC)c3)nc3ccc4c(c32)OCCO4)C1` [Compound C2-A, (R)-N-(1-(1-acryloylazepan-3-yl)-7,8-dihydro-1H-[1,4]dioxino[2′,3′:3,4]benzo[1,2-d]imidazol-2-yl)-2-methoxyisonicotinamide]: the GI50 in assay [1] was less than 0.5 µM; in assay [2], less than 0.5 µM; in assay [3] it was 1 to 5 µM; in assay [4], 1 to 5 µM.

Consider `C=CC(=O)N1CCCC[C@@H](n2c(NC(=O)c3ccnc(C)c3)nc3cccc(OC4CCN(CC)CC4)c32)C1` [Compound A1, (R)-N-(1-(1-Acryloylazepan-3-yl)-7-((1-ethylpiperidin-4-yl)oxy)-1H-benzo[d]imidazol-2-yl)-2-methylisonicotinamide], for which, in assay [1], the “Ratio (Wild-type ERBB1/Mutant ERBB1) A431/HCC827” value was “A′ (A′ represents a ratio of greater than 10)”, the “Ratio (Wild-type ERBB1/Mutant ERBB1) HEKn/HCC827” value is reported as “A′ (A′ represents a ratio of greater than 10)” and the GI50 was less than 0.5 µM. For the same compound, in assay [2], the “Ratio (Wild-type ERBB1/Mutant ERBB1) A431/H1975” value is listed as “A′ (A′ represents a ratio of greater than 10)”, the “Ratio (Wild-type ERBB1/Mutant ERBB1) HEKn/H1975” value is listed as “A′ (A′ represents a ratio of greater than 10)” and the GI50 is less than 0.5 µM. In addition, the GI50 in assay [3] was in the range of 1 to 5 µM. Besides, the GI50 in assay [4] is less than 0.5 µM.

For the compound `C=CC(=O)Nc1cccc(Nc2nc(Nc3ccc(N4CCN(C(C)=O)CC4)cc3OC)ncc2C(F)(F)F)c1` [CO-1686], in assay [1], the “Ratio (Wild-type ERBB1/Mutant ERBB1) HEKn/HCC827” value is listed as “A′ (A′ represents a ratio of greater than 10)”. Moreover, the GI50 worked out at 0.032 µM in assay [1] (setting [5]) and 2.5 µM in assay [3] (setting [5]). Further, the “Ratio (Wild-type ERBB1/Mutant ERBB1) HEKn/H1975” value in assay [2] is on record as “A′ (A′ represents a ratio of greater than 10)”.

Consider `Cc1cc(C(=O)Nc2nc3cc(OC(F)(F)F)cc(Cl)c3n2[C@@H]2CCCCN(C(=O)/C=C/CN(C)C)C2)ccn1` [Compound A5, (R,E)-N-(7-Chloro-1-(1-(4-(dimethylamino)but-2-enoyl)azepan-3-yl)-5-(trifluoromethoxy)-1H-benzo[d]imidazol-2-yl)-2-methylisonicotinamide], for which, in assay [1], the “Ratio (Wild-type ERBB1/Mutant ERBB1) A431/HCC827” value is given as “A′ (A′ represents a ratio of greater than 10)”, the “Ratio (Wild-type ERBB1/Mutant ERBB1) HEKn/HCC827” value is listed as “A′ (A′ represents a ratio of greater than 10)” and the GI50 was less than 0.5 µM. Moreover, in assay [2], the “Ratio (Wild-type ERBB1/Mutant ERBB1) A431/H1975” value is “C′ (C′ represents a ratio of no greater than 5 but no less than 2)”, the “Ratio (Wild-type ERBB1/Mutant ERBB1) HEKn/H1975” value is on record as “A′ (A′ represents a ratio of greater than 10)” and the GI50 was less than 0.5 µM. For the same compound, the GI50 in assay [3] was in the range of 1 to 5 µM. The GI50 in assay [4] lay in the range of 1 to 5 µM.
